Assay results as given in patent US20210353579A1, “HIGH PENETRATION COMPOSITIONS AND USES THEREOF” (Techfields Pharma Co., Ltd., priority 2006, published 2021).

Legend:
[1] = tested on: rats (SLAC/GK, type 2 diabetes); test: Blood glucose in type 2 diabetes rats, transdermal; assay type: in vivo, rat; settings: diabetic rats (SLAC/GK)
How it was run: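 GK type 2 diabetic rats (n=7) received the HPPs transdermally on a shaved ~1.5 cm^2 area of the back, at a dose equal to 20 mg/kg of NSAIAs, once daily for 5 weeks. Non-fasting blood glucose was measured every 3 days at 3 pm from week 2 to week 5, and blood lipids at the end of week 5.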

normal rats [2] = test: Blood glucose in normal rats, oral with food; assay type: in vivo, rat
[3] = tested on: rats (SLAC/GK, type 2 diabetes); test: Blood glucose in type 2 diabetes rats, oral with food; assay type: in vivo, rat
How it was run: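 Compounds (dosed equivalent to 20 mg/kg of NSAIAs) mixed in food and given orally daily for 5 weeks to rats (n=7). Non-fasting blood glucose measured every 3 days at 3 pm from week 2 to week 5; blood lipids measured at end of week 5.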

mice (MRL/LPR) = test: Anti-lupus erythematosus activity; assay type: in vivo, mouse; settings: 30 mg/kg topically twice per day, after 6 weeks
[4] = tested on: Human colon cancer cells (LS174J); test: Human colon cancer xenograft in nude mice, topical; settings: day 30, about 30 μl of 5% solution (1.5 mg) topically applied
Text: Human colon cancer cells (LS174J, 2-3 mm^3 of tumor tissue was used in each mouse) are subcutaneously xenografted into the front leg of nude mice (BALB).

normal rats [5] = test: Blood glucose in normal rats, transdermal; assay type: in vivo, rat
How it was run: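 Compounds equivalent to 20 mg/kg NSAIA were applied transdermally to a shaved ~1.5 cm^2 area of rat backs once daily at 8 am for 5 weeks (n=7). Non-fasting blood glucose was measured every 3 days at 3 pm from week 2 to week 5, and blood lipids at the end of week 5.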

[6] = baseline, equal to 20 mg/kg of NSAIAs

Q: What does the source list for `CC(=O)Oc1ccccc1C(=O)O.CCN(CC)CCOC(=O)c1ccccc1OC(C)=O` [P-1, diethylaminoethyl acetylsalicylate.acetylsalicylic acid salt]?
A: Blood glucose, Average ([1]; average second to fifth week, no fasting, equal to 20 mg/kg of NSAIAs once per day for 5 weeks): 6.5 ± 1 mmol/L; Blood glucose, Baseline ([1]; baseline, equal to 20 mg/kg of NSAIAs once per day): 16.1 ± 3 mmol/L; Blood glucose, Normal rats, Average (normal rats [2]; average second to fifth week, equal to 20 mg/kg of NSAIAs every day): 6.5 ± 1 mmol/L; Blood glucose, Normal rats, Baseline (normal rats [2]; [6]): 6.3 ± 1 mmol/L; Blood glucose, Diabetic rats, Average ([3]; average second to fifth week, no fasting, equal to 20 mg/kg of NSAIAs every day for 5 weeks): 6.5 ± 1 mmol/L; Blood glucose, Diabetic rats, Baseline [3, 6]: 16.5 ± 3 mmol/L; skin lesions and lupus nephritis (mice (MRL/LPR)): all skin lesions and lupus nephritis were resolved; Tumor size [4]: 420 ± 100 mm^3; Blood glucose, Average (normal rats [5]; normal rats (second Average line of Table 24), average second to fifth week, equal to 20 mg/kg of NSAIAs once per day): 6.3 ± 1 mmol/L; Blood glucose, Baseline (normal rats [5]; normal rats (second Baseline line of Table 24), baseline, equal to 20 mg/kg of NSAIAs): 6.4 ± 1 mmol/L
